Reference: patent US9241951B2, “Of gastrointestinal health, immunity and performance by dietary intervention” (BIOATLANTIS LTD, priority 2009, dated 2016)

Experiments:
[1] = Pig performance post weaning with LAM and FUC, Example 4; type: in vivo
From the text: (§1) One hundred and ninety two piglets were weaned at twenty four days of age, with an initial live weight of 6.4±0.785 Kg and assigned to one of four dietary treatments or 21 days post weaning. The dietary treatments consisted of (T1) basal diet, (T2) basal diet with 300 ppm LAM, (T3) basal diet with 236 ppm FUC, (T4) Basal diet with 300 ppm LAM and 236 ppm FUC. Diets were formulated to have identical concentrations of digestible energy (DE) (16 MJ/Kg) and ileal digestible lysine (14 g/Kg). All amino acid requirements were met relative to lysine (Close, 1994). Chromium III oxide was added to the diets for determination of nutrient digestibility. The LAM and FUC were derived from Laminaria hyperborea.
(§2) Piglets were housed in groups of 4 and offered feed twice daily. Water was supplied ad-libitum. Any pig displaying symptoms of illness was treated appropriately and recorded. Pigs were weighed on day 0 (day of weaning), 7, 14 and 21. Feed intake was monitored weekly. Fresh faecal samples were taken on day 10 and were analysed for E. coli and Lactobacilli concentrations. Faeces samples were collected from each pen on day 12-17 and were retained for chemical analysis. Fresh faecal samples were removed on day 14 and were frozen and retained for volatile fatty acid analysis. Fresh faecal samples were taken on day 17 for pH determination.

[2] = test system: Escherichia coli; test: Faecal microbiology, Example 4; type: in vivo, pig; settings: LAM diets (300 ppm) v no LAM supplementation (7.84)
From the text: as §1, §2
A sample was serially diluted (1:10) in 9.0 ml aliquots of maximum recovery diluent (MRD, Oxoid, Basingstoke, UK), and spread plated (0.1 ml aliquots) onto selective agars. Lactobacillus spp. were isolated on de Man, Rogosa, Sharp agar (MRS, Oxoid) with overnight incubation at 37° C. in 5% CO2. The API 50 CHL (BioMerieux, France) kit was used to confirm suspect Lactobacilli spp. E. coli species were isolated on MacConkey agar (Oxoid), following aerobic incubation at 37° C. for 18-24 hours. Suspect colonies were confirmed with API 20E (BioMerieux, France).

[3] = test system: IL-1α; test: Cytokine gene expression in unchallenged ileum and colon tissue (qPCR), Example 5; type: in vivo, pig; settings: unchallenged ileum or colon tissue; LAM 300, 600 ppm
Procedure: (§3) 21 pigs with an initial weight of 17.9±2.2 Kg were assigned to one of the 3 dietary treatments: (T1) control; (T2) basal diet+300 ppm LAM; (T3) basal diet+600 ppm LAM. Experimental feeding continued for 21 days ad libitum. Diets were formulated to have similar digestible energy (DE) (14.4 MJ/Kg) and ileal digestible lysine (12.5 g/Kg).
(§4) Ileal and colonic tissues was stabilised in RNAlater® solution and stored overnight at 4° C. The following day, RNAlater® was removed and samples were stored at −86° C. prior to RNA extraction.
(§5) Tissue samples for RNA extraction were removed from −86° C. and homogenised. 500 μl of lysis solution/2-ME was added to each sample and these were mechanically disrupted using one 5 mm stainless steel bead per sample. These were then placed in a Tissue Lyser (Qiagen) and lysates were homogenised for 3 mins and transferred to a GenElute Filtration Column (Sigma Aldrich) and RNA was extracted. 1 µg of total RNA was used for cDNA synthesis using oligo(dT)20 primer in a final reaction volume of 20 μl with Superscript™ III First-Strand synthesis system for reverse transcriptase-polymerase chain reaction (RT-PCR) (Invitrogen Life Technologies, Carlsbad, Calif.). At the last step of cDNA synthesis, treatment with E. coli RNase H (Invitrogen Corp.) was performed to digest the remaining RNA/mRNA template, resulting in the production of the single-stranded cDNA template for subsequent qRT-PCR reactions.
(§6) All porcine primers for the cytokine genes interferon gamma (IFN-γ), interleukin-1α (IL-1α), IL-6, IL-8, IL-10, IL-17, tumour necrosis factor (TNF-α), the mucin genes (MUCs 1, 2, 4, 5AC, 12, 13 and 20) and three reference genes, β-actin (ACTB), Glyceraldehyde-3-phosphate dehydrogenase (GAPDH) and Peptidylprolyl isomerase A (PPIA), were designed using Primer Express™ (PE Applied Biosystems, Foster City, Calif.) and synthesised by MWG Biotech (Milton Keynes, UK). These reference genes were previously validated for use in porcine tissue and qPCR was then carried out on the cDNA using the ABI PRISM 7900HT Fast sequence detection system for 96-well plates (Applied Biosystems, Foster City, Calif.). All samples were prepared in duplicate using SYBR Green Fast PCR Master Mix (Applied Biosystems, Foster City, Calif.), cDNA as template and specific primers for the genes selected. For each reaction 5 μl cDNA, 1.2 μl (forward and reverse primer mix, 5 μM), 10 μl Fast SYBR Green PCR Master Mix (PE Applied Biosystems, Foster City, Calif.) was added and made up to a final volume of 20 μl. The two step PCR program was as follows: 95° C. for 10 minutes for 1 cycle followed by 95° C. for 15 seconds and 60° C. for 1 minute for 40 cycles. The raw Ct values for the reference genes were converted to relative quantities using the formula Q=E ^ΔCt where E is the PCR efficiency of the assay and ^ΔCt is the value calculated for the difference between the lowest Ct value for each gene minus the Ct value of the sample in question. The relative quantities of the endogenous controls were then analysed for stability in geNorm (Vandesompele et al., 2002). The stability ‘M’ value generated by the geNorm application for the selected endogenous controls (ACTB, GAPDH and PPIA) indicated their suitability as endogenous controls for these intestinal samples. The geometric mean of the relative quantities for ACTB, GAPDH and PPIA (normalisation factor) was then calculated using geNorm. The relative quantities of each target gene were divided by the normalisation factor (obtained in geNorm) for that sample to give the final normalised relative expression.

[4] = test system: IL-6; test: as above; type: in vivo, pig; settings: unchallenged ileum or colon tissue; LAM 300, 600 ppm
Procedure: as §3, §4, §5, §6

[5] = test system: MUC13; test: Mucin gene expression in ileum and colon (qPCR), Example 5; type: in vivo, pig; settings: LAM supplementation
Procedure: as §3, §4, §5, §6

[6] = test system: MUC1; test: as above; type: in vivo, pig; settings: colon; LAM supplementation
Procedure: as §3, §4, §5, §6

[7] = test system: MUC12; test: as above; type: in vivo, pig; settings: LAM supplementation
Procedure: as §3, §4, §5, §6

[8] = test system: MUC2; test: as above; type: in vivo, pig
Procedure: as §3, §4, §5, §6

[9] = test system: MUC20; test: as above; type: in vivo, pig; settings: LAM supplementation
Procedure: as §3, §4, §5, §6

[10] = test system: MUC4; test: as above; type: in vivo, pig
Procedure: as §3, §4, §5, §6

[11] = test system: MUC5AC; test: as above; type: in vivo, pig; settings: colon; LAM supplementation
Procedure: as §3, §4, §5, §6

With laminarin the “Gain: Feed ratio” value ([1]; days 7-14, LAM supplemented diets (300 ppm) v unsupplemented (0.569)) was 0.763, the ADG ([1]; days 7-14 post weaning, LAM supplemented diets (300 ppm) v diets with no LAM (0.266)) was 0.344 and the ADG ([1]; entire experimental period, LAM supplemented diets (300 ppm) v no LAM (0.232)) was 0.324. For the same substance, the “Gain: Feed ratio” value ([1]; entire experimental period, LAM supplemented diets (300 ppm) v unsupplemented (0.646)) was 0.703, the “average daily feed intake” value ([1]; weaned pigs, 21 days, LAM 300 ppm, FUC 236 ppm) was “no effect” and the “faecal E. coli population” value [2] was 7.22. The IL-1α gene expression [3] was “no effects”, the IL-6 gene expression [4] was “no effects” and the MUC13 expression ([5]; colon) was “no effect”. The MUC13 expression ([5]; ileum) was “no effect”, the MUC1 expression [6] was “no effect” and the MUC12 expression ([7]; colon) was “no effect”. The MUC12 expression ([7]; ileum) was “no effect”, the MUC2 expression ([8]; colon, LAM 600 ppm) was “significantly increased” and the MUC2 expression ([8]; ileum, LAM 300 ppm relative to control animals) was “increase”. For the same substance, the “increased MUC2 expression” value ([8]; ileum, LAM 600 ppm) was “not observed”, the MUC20 expression ([9]; colon) was “no effect” and the MUC20 expression ([9]; ileum) was “no effect”. The MUC4 expression ([10]; colon, LAM 600 ppm) was “significantly increased”, the MUC4 expression ([10]; ileum, LAM supplementation) was “no effect” and the MUC5AC expression [11] was “no effect”.
